Values quoted from earlier work, collected in paper PMC3629230, “Permeability Enhancers Dramatically Increase Zanamivir Absolute Bioavailability in Rats: Implications for an Orally Bioavailable Influenza Treatment” (PLoS ONE, 2013).

Experiments:
[1] = system: flu strains; settings: cited from earlier work
[2] = system: seasonal H1N1; set-up: method as in earlier work; settings: 2009 tests; cited from earlier work
[3] = system: pandemic flu strains; set-up: method as in earlier work; settings: 2009 tests; cited from earlier work

SMILES	Resistance [1]	Strains resistant [2] [%]	Strains resistant [3] [%]
CC(=O)N[C@H]1[C@H]([C@H](O)[C@H](O)CO)OC(C(=O)O)=C[C@@H]1N=C(N)N [Zanamivir, zanamivir]	has not been observed		
CCOC(=O)C1=C[C@@H](OC(CC)CC)[C@H](NC(C)=O)[C@@H](N)C1 [oseltamivir]		99.6	0.5
